The text below walks through data of patent US8288377B2, “Inhibitors of the interaction between MDM2 and p53” (Janssen Pharmaceutica N.V., priority 2007, dated 2012).

One may read the IC50 as the concentration at which inhibition is half-maximal.

For test [1], the system named is A2780 ovarian cancer cells. Briefly: Proliferation assay (Alamar Blue). The test is classed as cell-based. The conditions noted are these: Homo sapiens, 96 h, 4-day incubation, read-out: pIC50 (negative log value of the IC50-value) (converted). How it is done:
Cellular activity of the compounds of formula (I) was determined on A2780 tumour cells using a colorimetric assay for cell toxicity or survival (see example C.2).
The human A2780 ovarian cancer cells were a kind gift from Dr. T. C. Hamilton (Fox Chase Cancer Centre, Pennsylvania, U.S.A.). The cells were cultured in RPMI 1640 medium supplemented with 2 mM L-Glutamine, 50 μg/ml gentamicin and 10% fetal calf serum.
Resazurin was purchased from Aldrich (Prod. No. 199303). Potassium ferrocyanide, potassium ferricyanide, KH2PO4 and K2HPO4 were purchased from Sigma (Prod. Nos. P9387, P8131, P5655 and P8281, respectively).
Potassium Phosphate Buffer 0.1 M (PPB) was made as follows: 2.72 gram KH2PO4 and 13.86 gram K2HPO4 were dissolved in 500 ml milli-Q H2O, the pH was adjusted to pH 7.4 and the volume was brought to 1 liter with milli-Q H2O; the buffer was filter sterilised and stored at room temperature. Resazurin stock solution (PPB-A) was prepared fresh by dissolving 45 mg resazurin in 15 ml PBS. 30 mM potassium ferricyanide (PPB-B) was prepared by dissolving 0.987 gram potassium ferricyanide in 100 ml PPB. 30 mM potassium ferrocyanide (PPB-C) was prepared by dissolving 1.266 gram potassium ferrocyanide in 100 ml PPB.
Mixture of PPB-A, PPB-B and PPB-C was prepared by mixing equal volumes of the respective solutions. Resazurin work solution (herein termed “Alamar Blue” solution) was prepared by diluting said mixture 20× (vol/vol) in PPB and filter sterilising; the Alamar Blue solution could be kept at 4° C. for a maximum of 2 weeks.
For experiments in 384 wells plates the cells were seeded at a density of 5×10^3 cells/ml in Falcon 384-well culture plates (Life Technologies, Merelbeke, Belgium), black with clear bottom, in 45 μl culture medium. Cells were allowed to adhere to plastic for 24 hr. The tested compound was pre-diluted (1/50 in culture medium) and 5 μl pre-diluted compound was added to the wells. Following 4-day incubation, 10 μl of the Alamar Blue solution was added to each well and the cells were further incubated for 5 hrs (A2780) at 37° C. The fluorescence intensity was measured for each well with a Fluorescence plate reader (Fluorskan, Labsystems, 540 nm excitation and 590 nm emission)
The antiproliferative activity was calculated as percentage of remaining viable cells in treated versus control (untreated cells) conditions. Within an experiment, the result for each experimental condition is the mean of 3 replicate wells. When appropriate, the experiments were repeated to establish full concentration-response curves. When appropriate, IC50-values (concentration of the drug, needed to reduce cell growth to 50% of the control) were computed using probit analysis for graded data (Finney, D. J., Probit Analyses, 2nd Ed. Chapter 10, Graded Responses, Cambridge University Press, Cambridge 1962). Herein the effects of test compounds are expressed as pIC50 (the negative log value of the IC50-value) (see Table 4).
A general note: Resazurin is reduced to fluorescent resorufin, in cell work by metabolically active cells.

The subject of a further test is p53 in A2780 cells. As to the kind of experiment: p53 ELISA (preservation of p53 in A2780 cells). The test is classed as cell-based. The note with it: Homo sapiens, treated with compound for 16 hours, read-out: p53-elisa LAD (lowest dose giving at least 140% of the value for p53 present in the control). How it is done: The capacity of the compounds to preserve p53 in A2780 cells was measured with the p53 enzyme linked immunosorbent assay (ELISA). The p53 assay is a “sandwich” enzyme immunoassay employing two polyclonal antibodies. A polyclonal antibody, specific for the p53 protein, has been immobilized onto the surface of the plastic wells. Any p53 present in the sample to be assayed will bind to the capture antibody. The biotinylated detector polyclonal antibody also recognizes p53 protein, and will bind to any p53, which has been retained by the capture antibody. The detector antibody, in turn, is bound by horseradish peroxidase-conjugated streptavidin. The horseradish peroxidase catalyses the conversion of the chromogenic substrate o-phenylene diamine, the intensity of which is proportional to the amount of p53 protein bound to the plate. The coloured reaction product is quantified using a spectrophotometer. Quantitation is achieved by the construction of a standard curve using known concentrations of purified recombinant HIS tagged p53 protein (see example C.1).
A2780 cells (ATCC) were cultivated in RPMI 1640 supplemented with 10% fetal calf serum (FCS), 2 mM L-glutamine and gentamycin at 37° C. in a humidified incubator with 5% CO2.
A2780 cells were seeded at 20.000 cells per well in a 96 well plate, cultured for 24 hours and treated with compound for 16 hours at 37° C. in a humidified incubator. After incubation, the cells were washed once with phosphate-buffered saline and 30 μl, per well, low salt RIPA buffer (20 mM tris, pH7.0, 0.5 mM EDTA, 1% Nonidet P40, 0.5% DOC, 0.05% SDS, 1 mM PMSF, 1 μg/ml aprotinin and 0.5 μ/ml leupeptin) was added. Plates were placed on ice for 30 minutes to complete the lysis. p53 protein was detected in de lysates by using the sandwich ELISA, described below.
High binding polystyrene EIA/RIA 96 well plates (Costar 9018) were coated with the capture antibody pAb1801 (Abcam ab28-100) at a concentration of 1 μg/ml in coating buffer (0.1 M NaHCO3 pH8.2), 50 μl per well. The antibody was allowed to adhere overnight at 4° C. Coated plates were washed once with phosphate-buffered saline (PBS)/0.05% Tween 20 and 300 μl of blocking buffer (PBS, 1% bovine serum albumins (BSA)) was added, for an incubation period of 2 hours at room temperature. Dilutions of purified recombinant HIS tagged p53 protein, ranging from 3-200 ng/ml, were made in blocking buffer and used as standards.
Plates were washed twice with PBS/0.05% Tween 20 and blocking buffer or standards were added at 80 μl/well. To the standards, 20 μl of lysis buffer was added. The samples were added to the other wells at 20 μl lysate/well. After an overnight incubation at 4° C., plates were washed twice with PBS/0.05% Tween 20. Aliquots of 100 μl secondary polyclonal antibody p53(FL-393) (Tebubio, sc-6243) at a concentration of 1 μg/ml in blocking buffer were added to each well and allowed to adhere for 2 hours at room temperature. Plates were washed three times with PBS/0.05% Tween 20. Detection antibody anti-rabbit HRP (sc-2004, Tebubio) at 0.04 μg/ml in PBS/1% BSA was added and incubated for 1 hour at room temperature. Plates were washed three times with PBS/0.05% Tween 20 and 100 μl of substrate buffer was added (substrate buffer was prepared shortly before use by adding 1 tablet of 10 mg o-phenylene diamine (OPD) from Sigma and 125 μl 3% H2O2 to 25 ml OPD buffer: 35 mM citric acid, 66 mM Na2HPO4, pH5.6). After 5 to 10 minutes, colour reaction was stopped by adding 50 μl stop buffer (1 M H2SO4) per well. The absorbance at dual wavelengths of 490/655 nm was measured using a Biorad micro plate reader and the results were then analyzed.
For each experiment, controls (containing no drug) and a blank incubation (containing no cells or drugs) were run in parallel. The blank value was subtracted from all control and sample values. For each sample, the value of p53 (in absorbance units) was expressed as the percentage of the value for p53 present in the control. […]

On to `OC1CCc2c(Nc3ccc4c(c3)OC3(CCCCC3)CN4CCc3c[nH]c4ccccc34)ccnc21` (stereo not shown) [Compound 29], for which the IC50 in test [1] was ~5.13 µM. Moreover, the minimal effective concentration in the test with p53 in A2780 cells came to 10 µM.
For `CC1CN(CCc2c[nH]c3ccccc23)c2ccc(Nc3ccncc3)cc2O1` (stereo not shown) [Compound 9], in that order: ~5.89 µM and > 10 µM.
For `CC(C)N1CCC2(CC1)CN(CCc1c[nH]c3ccccc13)c1ccc(Nc3ccncc3)cc1O2` [Compound 8], in that order: 1.26 µM and > 10 µM.
With `Cc1cccc2c(CCN3CCOc4cc(Nc5ccnc(CO)c5)ccc43)c[nH]c12` [Compound 72], the IC50 in test [1] is 4.68 µM. Further, the minimal effective concentration in the test on p53 in A2780 cells was > 10 µM.
For `CCC1(C)CN(CCc2c[nH]c3ccccc23)c2ccc(Nc3ccnc4c3CCC4O)cc2O1` (stereo not shown) [Compound 27], in that order: 5.13 µM and 1 µM.
For the compound `Fc1cc(Nc2ccncc2)cc2c1N(CCc1c[nH]c3ccccc13)CCO2` [Compound 50], the half-inhibitory concentration (IC50) in test [1] was 8.13 µM. Besides, the minimal effective concentration with p53 in A2780 cells is > 10 µM.
For `c1ccc2c(CCN3CCOc4cc(Nc5ccncc5)ccc43)coc2c1` [Compound 49], in that order: 4.79 µM and > 10 µM.
For `OC1CCc2c(Nc3ccc4c(c3)OC3(CCOCC3)CN4CCc3c[nH]c4ccccc34)ccnc21` (stereo not shown) [Compound 30], in that order: 6.31 µM and > 10 µM.
On to `OC1CCc2c(Nc3ccc4c(c3)OCCN4CCc3coc4ccccc34)ccnc21` (stereo not shown) [Compound 70], for which the IC50 in test [1] was 6.46 µM. In the test with p53 in A2780 cells, the minimal effective concentration is 10 µM.
As for `Cc1cccc2c(CCN3C[C@@H](CO)Oc4cc(Nc5ccnc6c5CC[C@@H]6O)ccc43)c[nH]c12` [Compound 19], in the test on p53 in A2780 cells, the minimal effective concentration was > 10 µM.
For the compound `c1ccc2c(CCN3CC4(CCOCC4)Oc4cc(Nc5ccncc5)ccc43)c[nH]c2c1` [Compound 7], the IC50 in test [1] is 8.51 µM. For the same compound, in the test with p53 in A2780 cells, the minimal effective concentration is > 10 µM.
For `O=C1COc2cc(Nc3ccnc(CO)c3)ccc2N1CCc1c[nH]c2ccccc12` [Compound 21], in that order: > 10 µM and > 10 µM.
On to `O=C1N(CCc2c[nH]c3ccccc23)c2ccc(Nc3ccnc(CO)c3)cc2OC1(F)F` [Compound 64], for which, in the test on p53 in A2780 cells, the minimal effective concentration turned out to be 10 µM.
On to `Cc1cccc2c(CCN3CC(C)Oc4cc(Nc5ccncc5)ccc43)coc12` (stereo not shown) [Compound 53], for which the IC50 in test [1] was 3.47 µM. The minimal effective concentration in the test on p53 in A2780 cells was > 10 µM.
Turning to `Cc1cccc2c(CCN3CC4(CCN(C)CC4)Oc4cc(Nc5ccncc5)ccc43)c[nH]c12` [Compound 58], the minimal effective concentration with p53 in A2780 cells was > 10 µM.
Same read-out and setting: under `Cc1cccc2c(CCN3CC4(CCNCC4)Oc4cc(Nc5ccnc6c5CCC6O)ccc43)c[nH]c12` (stereo not shown) [Compound 74] stands > 10 µM.
With `OC1CCc2c(Nc3ccc4c(c3)OC3(CCNCC3)CN4CCc3c[nH]c4ccccc34)ccnc21` (stereo not shown) [Compound 31], in test [1], the IC50 is > 10 µM. In addition, the minimal effective concentration in the test with p53 in A2780 cells is > 10 µM.
As to `CC1(C)Oc2cc(Nc3ccncc3)ccc2N(CCc2c[nH]c3ccccc23)C1=O` [Compound 63], the half-maximal inhibitory concentration (IC50) in test [1] is > 10 µM. Besides, the minimal effective concentration in the test with p53 in A2780 cells was > 10 µM.
`O=C1N(CCc2c[nH]c3ccccc23)c2ccc(Nc3ccnc4c3CCC4O)cc2OC1(F)F` (stereo not shown) [Compound 10]: the minimal effective concentration in the test with p53 in A2780 cells came out at 0.3 µM.
With `c1ccc2c(CCN3CCOc4cc(Nc5ccncc5)ccc43)c[nH]c2c1` [Compound 3], in test [1], the concentration for half-maximal inhibition (IC50) was > 10 µM. Moreover, in the test on p53 in A2780 cells, the minimal effective concentration was > 10 µM.
In the case of `Cc1cccc2c(CCN3CC(O)COc4cc(Nc5ccnc6c5CCC6O)ccc43)c[nH]c12` (stereo not shown) [Compound 18], the minimal effective concentration in the test with p53 in A2780 cells is > 10 µM.
For `CC1Oc2cc(Nc3ccnc(CO)c3)ccc2N(CCc2c[nH]c3ccccc23)C1=O` (stereo not shown) [Compound 65], the IC50 in test [1] is > 10 µM. Also, in the test on p53 in A2780 cells, the minimal effective concentration was > 10 µM.
In the case of `CC1(C)CN(CCc2c[nH]c3ccccc23)c2ccc(Nc3ccncc3)cc2O1` [Compound 62], in test [1], the IC50 is 5.37 µM. The minimal effective concentration with p53 in A2780 cells was > 10 µM.
For `OC1CCc2c(Nc3ccc4c(c3)OCCN4CCc3csc4ccccc34)ccnc21` (stereo not shown) [Compound 12], in that order: 3.72 µM and 0.3 µM.
Turning to `Cc1cccc2c(CCN3CC4(CCNCC4)Oc4cc(Nc5ccncc5)ccc43)c[nH]c12` [Compound 73], the minimal effective concentration with p53 in A2780 cells is > 10 µM.
`CC1CN(CCc2c[nH]c3ccccc23)c2ccc(Nc3ccnc(CO)c3)cc2O1` (stereo not shown) [Compound 79]: the minimal effective concentration in the test on p53 in A2780 cells came to 10 µM.
Take `Cc1cccc2c(CCN3CC(CO)Oc4cc(Nc5ccncc5)ccc43)c[nH]c12` (stereo not shown) [Compound 17]: in the test on p53 in A2780 cells, the minimal effective concentration is > 10 µM.
With `O=C1N(CCc2c[nH]c3ccccc23)c2ccc(Nc3ccncc3)cc2OC1(F)F` [Compound 60], in the test on p53 in A2780 cells, the minimal effective concentration is > 10 µM.
On the same count and under the same terms, under `CC1CN(CCc2c[nH]c3ccccc23)c2c(F)cc(Nc3ccnc4c3CCC4O)cc2O1` (stereo not shown) [Compound 32] stands 3 µM.
Consider `CC1CN(CCc2c[nH]c3ccccc23)c2c(F)cc(Nc3ccncc3)cc2O1` (stereo not shown) [Compound 57], for which the minimal effective concentration in the test with p53 in A2780 cells was > 10 µM.
`CC1Oc2cc(Nc3ccnc4c3CCC4O)ccc2N(CCc2c[nH]c3ccccc23)C1=O` (stereo not shown) [Compound 80]: in test [1], the IC50 was 3.09 µM.
